Counter-ions that a name gives are not always drawn.
Experiments:
[1] = Metabolic stability in human liver microsomes, unbound intrinsic clearance (Cl int/fu mic); format: in vitro ADME; conditions: human, liver microsomes, pH 7.4, human liver microsomes 0.25 mg/mL, 0.5 μM compound, NADPH, read-out: Cl int, mic unb. (h) [l/h/kg] (unbound intrinsic clearance, human)
Method in brief: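 Compound (0.5 µM) was incubated with human liver microsomes (0.25 mg/mL) in pH 7.4 phosphate buffer at 37 °C with 1.0 mM NADPH, sampling from 0–30 min. Depletion was followed by LC-MS/MS, and CLint was derived from first-order t1/2 per mg protein. Microsomal unbound fraction came from 4 h equilibrium dialysis at 37 °C, giving CLint/fu mic.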

5-HT2C receptor = target: T1, 5-HT2C receptor (Homo sapiens, UniProt P28335); assay: Human 5-HT2C functional assay (beta-arrestin2 recruitment, U2OS_HTR2C_β-Arrestin cells); format: cell-based; conditions: for EC50: beta-arrestin2 recruitment, U2OS_HTR2C_β-Arrestin cells, 1.5 h incubation, read-out: EC50 5-HT2C (potency in functional assay); for Emax: relative efficacy vs response to 10 μM 5-HT or maximal 5-HT effect (100%)
T1 construct: host or cells: U2OS
T1 sequence (P28335 33-458): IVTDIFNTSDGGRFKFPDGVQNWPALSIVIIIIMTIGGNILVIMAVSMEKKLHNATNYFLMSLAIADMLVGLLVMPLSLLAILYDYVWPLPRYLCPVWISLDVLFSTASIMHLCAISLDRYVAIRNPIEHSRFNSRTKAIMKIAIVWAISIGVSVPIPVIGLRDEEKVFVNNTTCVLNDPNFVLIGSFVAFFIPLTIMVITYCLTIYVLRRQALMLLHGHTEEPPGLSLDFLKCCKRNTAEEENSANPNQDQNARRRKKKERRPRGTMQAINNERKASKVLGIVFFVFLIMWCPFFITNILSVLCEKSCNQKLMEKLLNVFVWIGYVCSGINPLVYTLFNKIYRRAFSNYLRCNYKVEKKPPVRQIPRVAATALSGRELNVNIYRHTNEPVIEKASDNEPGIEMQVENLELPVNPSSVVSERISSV
T1 sequence (P32121 whole entry partner): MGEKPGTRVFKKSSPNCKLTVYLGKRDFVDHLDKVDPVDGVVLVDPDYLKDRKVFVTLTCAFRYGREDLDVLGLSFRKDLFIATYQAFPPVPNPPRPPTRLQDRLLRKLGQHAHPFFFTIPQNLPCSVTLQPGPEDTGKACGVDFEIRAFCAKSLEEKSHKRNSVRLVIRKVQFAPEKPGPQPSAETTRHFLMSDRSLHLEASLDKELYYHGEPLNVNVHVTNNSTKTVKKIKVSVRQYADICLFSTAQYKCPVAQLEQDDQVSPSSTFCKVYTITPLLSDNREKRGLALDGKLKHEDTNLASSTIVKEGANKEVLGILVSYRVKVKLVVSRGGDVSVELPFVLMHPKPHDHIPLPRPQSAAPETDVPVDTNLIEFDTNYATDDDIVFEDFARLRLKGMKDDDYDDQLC
Method in brief: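 U2OS cells expressing HTR2C with β-galactosidase complementation, switched to 1% serum medium 24 h post-plating, were treated next day with compound for 1.5 h; chemiluminescence read. Response expressed as % of 10 µM 5-HT or maximal 5-HT effect; EC50 from 4-parameter variable-slope fit.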

Structure (SMILES) | CLint scaled at 0.5 μM [1] [L/h/kg] | EC50 (5-HT2C receptor) [µM] | Emax (5-HT2C receptor) [%]
COc1nc(C2CCOCC2)c(F)cc1CNC(=O)[C@@H]1CCCN1 [Example 159, (2S)—N-[(5-Fluoro-2-methoxy-6-tetrahydropyran-4-yl-3-pyridyl)methyl]-pyrrolidine-2-carboxamide Hydrochloride] | < 5 | 0.2 to 1 | > 70
COc1nc(N2CCCCCC2)c(F)cc1CNC(=O)[C@@H]1CCCN1 [Example 155, (2S)—N-[[6-(Azepan-1-yl)-5-fluoro-2-methoxy-3-pyridyl]methyl]pyrrolidine-2-carboxamide; 2,2,2-trifluoroacetic Acid] | 5 to 50 | 0.02 to 0.2 | > 70
COc1nc(Cc2ccccc2)c(F)cc1CNC(=O)[C@@H]1CCCN1 [Example 145, (2S)—N-[(6-Benzyl-5-fluoro-2-methoxy-3-pyridyl)methyl]pyrrolidine-2-carboxamide] | < 5 | < 0.02 | > 70
COc1nc(NC2CCC(C(F)(F)F)CC2)c(F)cc1CNC(=O)[C@@H]1CCCN1 (stereo partly drawn) [Example 130, (2S)—N-[[5-Fluoro-2-methoxy-6-[[4-(trifluoromethyl)cyclohexyl]amino]-3-pyridyl]methyl]pyrrolidine-2-carboxamide] | 5 to 50 | < 0.02 | > 70
COc1nc(OCC(F)(F)C(F)F)c(F)cc1CN(C)C(=O)[C@@H]1CCCN1C [Example 102, (2S)—N-[[5-Fluoro-2-methoxy-6-(2,2,3,3-tetrafluoropropoxy)-3-pyridyl]methyl]-N,1-dimethyl-pyrrolidine-2-carboxamide Hydrochloride] | < 5 | 0.2 to 1 | 50 to 70
COc1nc(O[C@H]2CC[C@H](F)CC2)c(F)cc1CNC(=O)[C@@H]1CCCN1 [Example 31, (2S)—N-[[5-Fluoro-6-(trans-4-fluorocyclohexoxy)-2-methoxy-3-pyridyl]methyl]-pyrrolidine-2-carboxamide; Fumaric Acid] | < 5 | < 0.02 | > 70
COc1nc(OCC2CC(F)(F)C2)c(F)cc1CNC(=O)[C@@H]1CCCN1C [Example 92, (2S)—N-[[6-[(3,3-Difluorocyclobutyl)methoxy]-5-fluoro-2-methoxy-3-pyridyl]-methyl]-1-methyl-pyrrolidine-2-carboxamide Hydrochloride] | < 5 | < 0.02 | > 70
COc1nc(N2CCc3ccccc32)c(F)cc1CNC(=O)[C@@H]1CCCN1 [Example 138, (2S)—N-[(5-Fluoro-6-indolin-1-yl-2-methoxy-3-pyridyl)methyl]pyrrolidine-2-carboxamide Hydrochloride] | 5 to 50 | 0.2 to 1 | > 70
COc1nc(OCC2CCC(F)(F)CC2)c(F)cc1CNC(=O)[C@@H]1CCCN1 [Example 4, (2S)—N-[[6-[(4,4-Difluorocyclohexyl)methoxy]-5-fluoro-2-methoxy-3-pyridyl]-methyl]pyrrolidine-2-carboxamide; Fumaric Acid] | 5 to 50 | < 0.02 | > 70
COc1nc(N2CCCC(F)(F)C2)c(F)cc1CNC(=O)[C@@H]1CCCN1 [Example 156, (2S)—N-[[6-(3,3-Difluoro-1-piperidyl)-5-fluoro-2-methoxy-3-pyridyl]methyl]-pyrrolidine-2-carboxamide; 2,2,2-trifluoroacetic Acid] | < 5 | 0.02 to 0.2 | 50 to 70
COc1nc(O[C@H]2CCC[C@@H](C(F)(F)F)C2)c(F)cc1CNC(=O)[C@@H]1CCCN1 (relative stereo) [Example 88, (2S)—N-[[5-Fluoro-2-methoxy-6-[(1S,3R)-3-(trifluoromethyl)cyclohexoxy]-3-pyridyl]methyl]pyrrolidine-2-carboxamide Hydrochloride] | 5 to 50 | < 0.02 | > 70
COc1nc(OCC(C)CC(F)(F)F)c(F)cc1CNC(=O)[C@@H]1CCCN1 (stereo partly drawn) [Example 49, (2S)—N-[[5-Fluoro-2-methoxy-6-(4,4,4-trifluoro-2-methyl-butoxy)-3-pyridyl]-methyl]pyrrolidine-2-carboxamide; Succinic Acid] | 5 to 50 | < 0.02 | > 70
COc1nc(OCC2CC2(F)F)c(F)cc1CNC(=O)[C@@H]1CCCN1C (stereo partly drawn) [Example 68, (2S)—N-[[6-[(2,2-Difluorocyclopropyl)methoxy]-5-fluoro-2-methoxy-3-pyridyl]-methyl]-1-methyl-pyrrolidine-2-carboxamide Hydrochloride] | < 5 | < 0.02 | > 70
COc1nc(OC2CCC(O)CC2)c(F)cc1CNC(=O)[C@@H]1CCCN1 (stereo partly drawn) [Example 81, (2S)—N-[[5-Fluoro-6-(4-hydroxycyclohexoxy)-2-methoxy-3-pyridyl]methyl]-pyrrolidine-2-carboxamide; 2,2,2-trifluoroacetic Acid] | < 5 | 0.2 to 1 | > 70
COc1nc(OCC2CC(F)(F)C2(F)F)c(F)cc1CNC(=O)[C@@H]1CCCN1C (stereo partly drawn) [Example 90, (2S)—N-[[5-Fluoro-2-methoxy-6-[(2,2,3,3-tetrafluorocyclobutyl)methoxy]-3-pyridyl]methyl]-1-methyl-pyrrolidine-2-carboxamide Hydrochloride] | < 5 | < 0.02 | > 70
COc1nc(O[C@H]2CC[C@@H](F)CC2)c(F)cc1CNC(=O)[C@@H]1CCCN1C [Example 29, (2S)—N-[[5-Fluoro-6-(cis-4-fluorocyclohexoxy)-2-methoxy-3-pyridyl]methyl]-1-methyl-pyrrolidine-2-carboxamide; Fumaric Acid] | < 5 | < 0.02 | > 70
COc1nc(NCC2CC(F)(F)C2)c(F)cc1CNC(=O)[C@@H]1CCCN1 [Example 136, (2S)—N-[[6-[(3,3-Difluorocyclobutyl)methylamino]-5-fluoro-2-methoxy-3-pyridyl]methyl]pyrrolidine-2-carboxamide; 2,2,2-trifluoroacetic Acid] | < 5 | < 0.02 | > 70
COc1nc(N2CCOC(c3ccccc3)C2)c(F)cc1CNC(=O)[C@@H]1CCCN1 (stereo partly drawn) [Example 173, (2S)—N-[[5-Fluoro-2-methoxy-6-(2-phenylmorpholin-4-yl)-3-pyridyl]methyl]-pyrrolidine-2-carboxamide; 2,2,2-trifluoroacetic Acid] | 5 to 50 | 0.2 to 1 | 50 to 70
COc1nc(OC2CCC(F)(F)CC2)c(F)cc1CNC(=O)[C@@H]1C[C@@H](C)CN1 [Example 59, (2 S,4R)—N-[[6-(4,4-Difluorocyclohexoxy)-5-fluoro-2-methoxy-3-pyridyl]methyl]-4-methyl-pyrrolidine-2-carboxamide Hydrochloride] | < 5 | < 0.02 | 50 to 70
COc1nc(OCC2CCC(F)(F)C2)c(F)cc1CNC(=O)[C@@H]1CCCN1C (stereo partly drawn) [Example 7, (2S)—N-[[6-[(3,3-Difluorocyclopentyl)methoxy]-5-fluoro-2-methoxy-3-pyridyl]-methyl]-1-methyl-pyrrolidine-2-carboxamide; Fumaric Acid] | < 5 | < 0.02 | > 70
COc1nc(NC2CCC(F)(F)CC2)c(F)cc1CNC(=O)[C@@H]1CCCN1 [Example 126, (2S)—N-[[6-[(4,4-Difluorocyclohexyl)amino]-5-fluoro-2-methoxy-3-pyridyl]methyl]pyrrolidine-2-carboxamide; 2,2,2-trifluoroacetic Acid] | < 5 | < 0.02 | > 70
COc1nc(O[C@H]2CC[C@H](C(F)(F)F)CC2)c(F)cc1CNC(=O)[C@@H]1CCCN1C [Example 8, (2S)—N-[[5-Fluoro-2-methoxy-6-[trans-4-(trifluoromethyl)cyclohexoxy]-3-pyridyl]methyl]-1-methyl-pyrrolidine-2-carboxamide; Fumaric Acid] | 5 to 50 | < 0.02 | > 70
COc1nc(N(C)Cc2ccccc2)c(F)cc1CNC(=O)[C@@H]1CCCN1 [Example 179, (2S)—N-[[6-[N-Benzyl-N-methyl-amino]-5-fluoro-2-methoxy-3-pyridyl]methyl]-pyrrolidine-2-carboxamide; 2,2,2-trifluoroacetic Acid] | 5 to 50 | 0.2 to 1 | 50 to 70
COc1nc(OCC(F)(F)C(F)F)c(F)cc1CNC(=O)[C@@H]1CCCN1C [Example 91, (2S)—N-[[5-Fluoro-2-methoxy-6-(2,2,3,3-tetrafluoropropoxy)-3-pyridyl]methyl]-1-methyl-pyrrolidine-2-carboxamide Hydrochloride] | < 5 | < 0.02 | > 70
COc1nc(OC2CC(F)(F)C2)c(F)cc1CN(C)C(=O)[C@@H]1CCCN1C [Example 99, (2S)—N-[[6-(3,3-Difluorocyclobutoxy)-5-fluoro-2-methoxy-3-pyridyl]methyl]-N,1-dimethyl-pyrrolidine-2-carboxamide Hydrochloride] | < 5 | 0.02 to 0.2 | 50 to 70

Reference: patent publication US20190062305A1, “PYRIDYL OR PYRAZINYL COMPOUNDS CARRYING A METHYL-BOUND ALPHA-AMINO ACID AMIDE GROUP” (ABBVIE DEUTSCHLAND GMBH & CO. KG, priority 2015, published 2019)
